# Measurements taken from publication PMC3038857, “Using Nuclear Receptor Activity to Stratify Hepatocarcinogens” (PLoS ONE, 2011).
# Like-named read-outs stand apart in the source and are kept apart here.
# How the values were obtained:
# [1] = target: T1, ESR1 (estrogen receptor 1) (Homo sapiens, UniProt P03372); test: ATG_ERa_TRANS: Factorial reporter gene assay (HepG2); assay type: cell-based; conditions: HepG2
# T1 construct: expressed in transfected cells; host or cells: HepG2
# Protocol: A multiple reporter transcription unit (MRTU) library consisting of 48 transcription factor binding sites was transfected into the HepG2 human liver hepatoma cell line. In addition to the cis-acting reporter genes (CIS), a modification of the approach was used to generate a trans-system (TRANS) with a mammalian one-hybrid assay consisting of an additional 25 MRTU library reporting the activity of nuclear receptor super-family members. […] These assays were performed by Attagene Inc. (Morrisville NC) under contract to EPA.
# In addition to the cis-acting reporter genes (CIS), a modification of the approach was used to generate a trans-system (TRANS) with a mammalian one-hybrid assay consisting of an additional 25 MRTU library reporting the activity of nuclear receptor super-family members. […] Chemicals were then tested in the CIS and TRANS assays at seven concentrations starting at the MTC and followed by three-fold serial dilutions. These assays were performed by Attagene Inc. (Morrisville NC) under contract to EPA. Detailed description of the methods, data and analysis methods for this dataset will be presented in a separate publication.
# [2] = system: CYP1A1; test: CLZD_CYP1A1: Change in expression of CYP1A1 (primary human hepatocytes); assay type: cell-based; conditions: 24 hr
# Procedure, shortened: (§1)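 Read-out: mRNA change by multiplexed quantitative nuclease protection assay. Primary human hepatocytes; 5 concentrations, 0.004-40 µM; exposures 6, 24, 48 hr.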
# [3] = system: CYP1A2; test: CLZD_CYP1A2: Change in expression of CYP1A2 (primary human hepatocytes); assay type: cell-based; conditions: 24 hr
# Procedure, shortened: as §1
# [4] = system: CYP2B6; test: CLZD_CYP2B6: Change in expression of CYP2B6 (primary human hepatocytes); assay type: cell-based; conditions: 24 hr
# Procedure, shortened: as §1
# [5] = system: CYP3A4; test: CLZD_CYP3A4: Change in expression of CYP3A4 (primary human hepatocytes); assay type: cell-based; conditions: 24 hr
# Procedure, shortened: as §1
# [6] = target: T2, PXR Human (NR1I2) (Homo sapiens, UniProt O75469); test: NCGC_PXR_Agonist_human: GAL4 BLAM Reporter gene assay: PXR Human; assay type: cell-based; conditions: agonist mode
# T2 sequence (O75469 146-434 limits assumed): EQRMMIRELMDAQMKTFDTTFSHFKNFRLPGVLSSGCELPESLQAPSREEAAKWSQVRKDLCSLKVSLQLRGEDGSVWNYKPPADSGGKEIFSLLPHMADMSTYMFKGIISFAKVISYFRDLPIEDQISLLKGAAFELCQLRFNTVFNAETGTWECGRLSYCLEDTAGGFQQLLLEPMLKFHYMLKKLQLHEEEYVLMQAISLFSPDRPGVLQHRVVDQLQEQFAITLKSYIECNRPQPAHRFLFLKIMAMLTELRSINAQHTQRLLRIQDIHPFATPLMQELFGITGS
# Protocol: These assays measure binding constants and enzyme inhibition values for nuclear receptors. The targets include [drawing 67] , [drawing 68] , [drawing 69] , [drawing 70] , [drawing 71] , [drawing 72] , [drawing 73] , [drawing 74] , [drawing 75] and [drawing 76] . Each of the nuclear receptor targets was measured in agonist mode. Assays were run at the NIH Chemical Genomics Center (Rockville, MD).
# Cell-based HTS Assays: These assays measuring binding constants and enzyme inhibition values for nuclear receptors. The targets include AR, ER, FXR, LXR, PPARα, PPARδ, PPARγ, RXRα, RXRβ and PXR. Each of the nuclear receptor targets was measured in both agonist and antagonist mode, but the antagonist data is still undergoing analysis due to possible interference between cytotoxicity and assay activity, so antagonist mode data were not used in the present analysis. Assays were run at the NIH Chemical Genomics Center (Rockville, MD) as part of the Tox21 collaboration. […] The R^2 was required to be ≥0.5. Values where only the highest concentration exceeded 50% activity were excluded to eliminate weak or false positives. Detailed description of the methods, data and analysis methods for this dataset will be presented in a separate publication.
# [7] = system: Mouse Liver; conditions: ref ToxRefDB, cited from earlier work
# [8] = system: Mouse Liver; conditions: ref ToxRefDB, cited from earlier work; remark: listed apart in the source
# [9] = target: T3, PXR (NR1I2) (Homo sapiens, UniProt O75469); test: ATG_PXR_TRANS: Factorial reporter gene assay (HepG2); assay type: cell-based; parameters: endogenous in cells; host or cells: HepG2; conditions: HepG2
# T3 sequence (O75469 1-434): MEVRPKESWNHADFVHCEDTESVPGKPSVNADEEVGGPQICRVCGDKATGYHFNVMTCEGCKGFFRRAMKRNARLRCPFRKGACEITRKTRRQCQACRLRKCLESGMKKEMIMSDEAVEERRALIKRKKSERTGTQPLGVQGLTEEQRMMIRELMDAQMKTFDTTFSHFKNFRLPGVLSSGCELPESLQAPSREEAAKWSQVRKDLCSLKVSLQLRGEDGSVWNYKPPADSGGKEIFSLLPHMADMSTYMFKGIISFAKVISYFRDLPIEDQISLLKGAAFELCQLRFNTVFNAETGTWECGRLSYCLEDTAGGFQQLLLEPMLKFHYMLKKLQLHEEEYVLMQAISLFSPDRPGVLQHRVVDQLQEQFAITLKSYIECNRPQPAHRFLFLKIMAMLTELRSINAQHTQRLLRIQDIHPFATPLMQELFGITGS
# Procedure, shortened: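 HepG2 cells transfected with multiplexed reporter libraries: cis-acting binding-site reporters (CIS) and a one-hybrid nuclear-receptor trans system (TRANS). Chemicals tested at seven concentrations, starting at the maximum tolerated concentration with three-fold serial dilutions.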
# [10] = target: T3, PXR (NR1I2); test: ATG_PXRE_CIS: Factorial reporter gene assay (HepG2); assay type: cell-based; parameters: endogenous in cells; host or cells: HepG2; conditions: HepG2
# Procedure, shortened: (§2)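 Mammalian one-hybrid trans reporters (25 MRTUs) measured ERRg, FXR and PPARg; PXRE used cis reporters from a 48-site MRTU library. Both were run in HepG2. Dosing: seven concentrations, MTC as the highest, three-fold dilution series.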
# [11] = target: T4, PPARG (peroxisome proliferator-activated receptor gamma) (Homo sapiens, UniProt P37231); test: ATG_PPARg_TRANS: Factorial reporter gene assay (HepG2); assay type: cell-based; conditions: HepG2
# T4 construct: expressed in transfected cells; host or cells: HepG2
# T4 sequence (P37231 1-505): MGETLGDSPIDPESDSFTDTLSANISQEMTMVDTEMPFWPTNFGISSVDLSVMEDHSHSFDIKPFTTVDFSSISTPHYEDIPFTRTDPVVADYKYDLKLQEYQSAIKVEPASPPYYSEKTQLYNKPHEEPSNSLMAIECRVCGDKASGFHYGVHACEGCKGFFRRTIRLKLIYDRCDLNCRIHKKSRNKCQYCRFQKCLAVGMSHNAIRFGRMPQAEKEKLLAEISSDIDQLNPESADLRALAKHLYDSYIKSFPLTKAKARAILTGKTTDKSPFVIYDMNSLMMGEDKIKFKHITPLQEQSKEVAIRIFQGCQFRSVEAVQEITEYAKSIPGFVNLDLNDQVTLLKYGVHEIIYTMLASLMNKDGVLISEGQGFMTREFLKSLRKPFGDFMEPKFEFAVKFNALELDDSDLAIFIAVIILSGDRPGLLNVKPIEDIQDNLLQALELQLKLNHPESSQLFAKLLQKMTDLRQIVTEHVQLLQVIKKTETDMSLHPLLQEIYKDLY
# Procedure, shortened: as §2
# [12] = target: T3, PXR (NR1I2); test: NVS_NR_hPXR: Human PXR Fluormone PXR (SXR) green (cell-free HTS); assay type: binding
# Procedure, shortened: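 Responses were normalized to same-plate solvent controls as percent of neutral control. AC50 values came from Hill-equation fits of concentration-response curves.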
# [13] = system: Mouse Liver; conditions: chronic mouse study, liver; ref ToxRefDB; cited from earlier work
# [14] = system: Rat Liver; conditions: chronic rat study, liver; ref ToxRefDB; cited from earlier work
# [15] = system: Rat Liver; conditions: chronic rat study, liver; ref ToxRefDB; cited from earlier work; remark: listed apart in the source
# [16] = system: Rat Liver; conditions: chronic rat study, liver; ref ToxRefDB; cited from earlier work; remark: listed apart in the source
# T1 sequence (P03372 whole entry): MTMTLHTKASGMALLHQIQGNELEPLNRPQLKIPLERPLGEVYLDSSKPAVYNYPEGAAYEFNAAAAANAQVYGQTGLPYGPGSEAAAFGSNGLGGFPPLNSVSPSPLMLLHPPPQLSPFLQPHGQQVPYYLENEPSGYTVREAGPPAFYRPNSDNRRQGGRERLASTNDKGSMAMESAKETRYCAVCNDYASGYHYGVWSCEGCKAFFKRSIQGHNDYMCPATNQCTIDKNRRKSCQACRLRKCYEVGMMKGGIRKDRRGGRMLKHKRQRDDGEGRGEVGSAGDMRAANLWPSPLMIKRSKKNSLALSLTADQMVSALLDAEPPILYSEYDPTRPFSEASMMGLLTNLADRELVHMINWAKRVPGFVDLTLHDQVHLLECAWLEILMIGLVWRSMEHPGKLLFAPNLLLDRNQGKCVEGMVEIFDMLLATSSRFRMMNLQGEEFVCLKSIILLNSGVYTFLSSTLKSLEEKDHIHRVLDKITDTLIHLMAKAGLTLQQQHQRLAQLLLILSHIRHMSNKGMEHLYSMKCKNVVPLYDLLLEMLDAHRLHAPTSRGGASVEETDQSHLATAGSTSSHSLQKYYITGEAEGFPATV
SMILES,ATG_ERa_TRANS [1],CLZD_CYP1A1_24 [2],CLZD_CYP1A2_24 [3],CLZD_CYP2B6_24 [4],CLZD_CYP3A4_24 [5],NCGC_PXR_Agonist_human [6],"CHR_Mouse_Liver_1_AnyLesion ([7]; mouse, chronic study)","CHR_Mouse_Liver_2_PreneoplasticLesion ([8]; mouse, chronic study)",ATG_PXR_TRANS [9],ATG_PXRE_CIS [10],ATG_PPARg_TRANS [11],NVS_NR_hPXR [12],"CHR_Mouse_Liver_1_AnyLesion ([7]; chronic mouse study, liver)","CHR_Mouse_Liver_2_PreneoplasticLesion ([8]; chronic mouse study, liver)",CHR_Mouse_Liver_3_NeoplasticLesion [13],CHR_Rat_Liver_1_AnyLesion [14],CHR_Rat_Liver_2_PreneoplasticLesion [15],CHR_Rat_Liver_3_NeoplasticLesion [16]
CCOc1cc(Oc2ccc(C(F)(F)F)cc2Cl)ccc1[N+](=O)[O-] [r233],5.102,5.52,5.409,5.028,5.072,4.683,6,6,4.699,4.432,–,–,–,–,–,–,–,–
CCCCC(CC)CN1C(=O)C2C3C=CC(C3)C2C1=O (stereo not shown) [row 212],4.328,4.883,5.284,5.005,4.752,–,–,–,4.745,5.06,4.284,4.582,6,6,6,6,6,0
